Measurements published in paper PMC11409674, “Raffinocyclicin is a novel plasmid-encoded circular bacteriocin produced by Lactococcus raffinolactis with broad-spectrum activity against many gram-positive food pathogens” (Applied and environmental microbiology, 2024).
Entries after “also recorded” stand apart in the source; their conditions may differ.

Experiments:
[1] = system: VRE APC 1027; experiment: spot-on-lawn assay; type: cell-based, vancomycin-resistant enterococci; conditions: producer spot on M17, chloroform-inactivated, overlay ~7.0 log CFU/mL indicator; 37 °C, Aerobic, BHI; true halo, triplicate
[2] = system: Enterococcus faecalis ATCC 29200; experiment: spot-on-lawn assay; type: cell-based; conditions: producer spot on M17, chloroform-inactivated, overlay ~7.0 log CFU/mL indicator; 37 °C, Aerobic, BHI; true halo, triplicate
[3] = system: Streptococcus agalactiae 35; experiment: spot-on-lawn assay; type: cell-based; conditions: producer spot on M17, chloroform-inactivated, overlay ~7.0 log CFU/mL indicator; 37 °C, Aerobic, TSA; true halo, triplicate
[4] = system: VRE APC 1029; experiment: spot-on-lawn assay; type: cell-based, vancomycin-resistant enterococci; conditions: producer spot on M17, chloroform-inactivated, overlay ~7.0 log CFU/mL indicator; 37 °C, Aerobic, BHI; true halo, triplicate
[5] = system: Klebsiella pneumoniae C02.b; experiment: spot-on-lawn assay; type: cell-based; set-up: key: –: no activity; +: 0.5–5 mm inhibition zone; ++: >5–≤10 mm inhibition zone; +++: >10 mm inhibition zone; conditions: producer spot on M17, chloroform-inactivated, overlay ~7.0 log CFU/mL indicator; 37 °C, Aerobic, BHI; true halo, triplicate
[6] = system: Listeria monocytogenes EDGe; experiment: spot-on-lawn assay; type: cell-based; conditions: producer spot on M17, chloroform-inactivated, overlay ~7.0 log CFU/mL indicator; 37 °C, Aerobic, BHI; true halo, triplicate
[7] = residual antimicrobial activity after NaOH treatment; type: physicochemical; conditions: NaOH 0.2 M, 37 °C, 4 h
Experimental: The effects of proteinase K (1 mg/mL; Sigma-Aldrich, St Louis, USA), trypsin (1 mg/mL; Merck KgaA, Darmstad, DE), and 0.2 M NaOH on antimicrobial activity were evaluated on agar plates by the methods described previously ([42]). Briefly, 5 µL of an overnight growth suspension of the strain L. raffinolactis APC 3967 was spotted four times on a plate and incubated at optimal conditions. Afterward, the cells were inactivated by chloroform, and 40 µL of the corresponding treatment (protease or NaOH 0.2 M) was spotted around the producer strain. The control was treated with 10 mM PBS, pH 7.4. The plate was incubated at 37°C for 4 h to favor protease activity. The plate was then overlaid with L. lactis HP and incubated at 30°C for 24 h. Results were interpreted by measuring the true halo of the sample, and the following equation calculated the final values of the residual activity: (true halo of treated condition/true halo of the control) × 100 = residual activity (%).

[8] = system: Staphylococcus capitis APC 2923; experiment: spot-on-lawn assay; type: cell-based; set-up: key: –: no activity; +: 0.5–5 mm inhibition zone; ++: >5–≤10 mm inhibition zone; +++: >10 mm inhibition zone; conditions: producer spot on M17, chloroform-inactivated, overlay ~7.0 log CFU/mL indicator; 37 °C, Aerobic, BHI; true halo, triplicate
[9] = system: Lactococcus lactis HP; experiment: spot-on-lawn assay; type: cell-based; conditions: producer spot on M17, chloroform-inactivated, overlay ~7.0 log CFU/mL indicator; 30 °C, Aerobic, GM17; true halo, triplicate
[10] = system: S. agalactiae 119; experiment: spot-on-lawn assay; type: cell-based, Streptococcus agalactiae; conditions: producer spot on M17, chloroform-inactivated, overlay ~7.0 log CFU/mL indicator; 37 °C, Aerobic, TSA; true halo, triplicate
[11] = system: Micrococcus luteus APC 4061; experiment: spot-on-lawn assay; type: cell-based; conditions: producer spot on M17, chloroform-inactivated, overlay ~7.0 log CFU/mL indicator; 37 °C, Aerobic, BHI; true halo, triplicate
[12] = system: Lactobacillus delbrueckii subsp. bulgaricus LMG 6901; experiment: spot-on-lawn assay; type: cell-based; conditions: producer spot on M17, chloroform-inactivated, overlay ~7.0 log CFU/mL indicator; 37 °C, Anaerobic, MRS; true halo, triplicate
[13] = system: Staphylococcus pseudointermedius DK 279; experiment: spot-on-lawn assay; type: cell-based; set-up: key: –: no activity; +: 0.5–5 mm inhibition zone; ++: >5–≤10 mm inhibition zone; +++: >10 mm inhibition zone; conditions: producer spot on M17, chloroform-inactivated, overlay ~7.0 log CFU/mL indicator; 37 °C, Aerobic, BHI; true halo, triplicate
[14] = system: E. faecium DSM 26544; experiment: spot-on-lawn assay; type: cell-based, Enterococcus faecium; conditions: producer spot on M17, chloroform-inactivated, overlay ~7.0 log CFU/mL indicator; 37 °C, Aerobic, BHI; true halo, triplicate
[15] = system: VRE APC 1028; experiment: spot-on-lawn assay; type: cell-based, vancomycin-resistant enterococci; conditions: producer spot on M17, chloroform-inactivated, overlay ~7.0 log CFU/mL indicator; 37 °C, Aerobic, BHI; true halo, triplicate
[16] = system: Clostridium perfringens EM124; type: cell-based; conditions: producer spot on M17, chloroform-inactivated, overlay ~7.0 log CFU/mL indicator; 37 °C, Anaerobic, RCM; true halo, triplicate
[17] = system: L. lactis ATCC 11454; experiment: spot-on-lawn assay; type: cell-based, Lactococcus lactis; conditions: producer spot on M17, chloroform-inactivated, overlay ~7.0 log CFU/mL indicator; 30 °C, Aerobic, GM17; true halo, triplicate
[18] = system: Bacilllus cereus KH 1453; experiment: spot-on-lawn assay; type: cell-based; set-up: key: –: no activity; +: 0.5–5 mm inhibition zone; ++: >5–≤10 mm inhibition zone; +++: >10 mm inhibition zone; conditions: producer spot on M17, chloroform-inactivated, overlay ~7.0 log CFU/mL indicator; 37 °C, Aerobic, BHI; true halo, triplicate
[19] = system: E. faecium DPC 5152; experiment: spot-on-lawn assay; type: cell-based, Enterococcus faecium; conditions: producer spot on M17, chloroform-inactivated, overlay ~7.0 log CFU/mL indicator; 37 °C, Aerobic, BHI; true halo, triplicate
[20] = system: VRE APC 1026; experiment: spot-on-lawn assay; type: cell-based, vancomycin-resistant enterococci; conditions: producer spot on M17, chloroform-inactivated, overlay ~7.0 log CFU/mL indicator; 37 °C, Aerobic, BHI; true halo, triplicate
[21] = system: Leuconostoc mesenteroides KH 24; experiment: spot-on-lawn assay; type: cell-based; conditions: producer spot on M17, chloroform-inactivated, overlay ~7.0 log CFU/mL indicator; 30 °C, Aerobic, MRS; true halo, triplicate
[22] = system: S. aureus C5M; experiment: spot-on-lawn assay; type: cell-based, Staphylococcus aureus; set-up: key: –: no activity; +: 0.5–5 mm inhibition zone; ++: >5–≤10 mm inhibition zone; +++: >10 mm inhibition zone; conditions: producer spot on M17, chloroform-inactivated, overlay ~7.0 log CFU/mL indicator; 37 °C, Aerobic, BHI; true halo, triplicate
[23] = system: E. faecium DPC 3675; experiment: spot-on-lawn assay; type: cell-based, Enterococcus faecium; conditions: producer spot on M17, chloroform-inactivated, overlay ~7.0 log CFU/mL indicator; 37 °C, Aerobic, BHI; true halo, triplicate
[24] = system: Staphylococcus aureus DPC 5645; experiment: spot-on-lawn assay; type: cell-based; set-up: key: –: no activity; +: 0.5–5 mm inhibition zone; ++: >5–≤10 mm inhibition zone; +++: >10 mm inhibition zone; conditions: producer spot on M17, chloroform-inactivated, overlay ~7.0 log CFU/mL indicator; 37 °C, Aerobic, BHI; true halo, triplicate
[25] = system: E. faecalis V583; experiment: spot-on-lawn assay; type: cell-based, Enterococcus faecalis; conditions: producer spot on M17, chloroform-inactivated, overlay ~7.0 log CFU/mL indicator; 37 °C, Aerobic, BHI; true halo, triplicate
[26] = system: Pseudomonas aeruginosa PA-01; experiment: spot-on-lawn assay; type: cell-based; set-up: key: –: no activity; +: 0.5–5 mm inhibition zone; ++: >5–≤10 mm inhibition zone; +++: >10 mm inhibition zone; conditions: producer spot on M17, chloroform-inactivated, overlay ~7.0 log CFU/mL indicator; 37 °C, Aerobic, BHI; true halo, triplicate
[27] = system: Staphylococcus epidermidis DSM 3095; experiment: spot-on-lawn assay; type: cell-based; conditions: producer spot on M17, chloroform-inactivated, overlay ~7.0 log CFU/mL indicator; 37 °C, Aerobic, BHI; true halo, triplicate
[28] = system: Listeria innocua UCC; experiment: spot-on-lawn assay; type: cell-based; conditions: producer spot on M17, chloroform-inactivated, overlay ~7.0 log CFU/mL indicator; 37 °C, Aerobic, BHI; true halo, triplicate
[29] = system: Escherichia sp. UCC; experiment: spot-on-lawn assay; type: cell-based; set-up: key to Activity (inhibition zone): –: no activity; +: 0.5–5 mm inhibition zone; ++: >5–≤10 mm inhibition zone; +++: >10 mm inhibition zone
Experimental: The antimicrobial activity of the strain L. raffinolactis APC 3967 was evaluated on M17 medium by the agar-spot test as described by Giambiagi-deMarval et al. ([42]) with minor modifications ([42]). Briefly, 5 µL of an overnight growth suspension of the producer strain was spotted on the surface of the agar plate and incubated overnight at 30°C. Cells were inactivated by chloroform and overlaid with 3 mL soft agar (0.75% wt/vol) containing the target strain (~7.0 log CFU/mL), and these plates were incubated overnight. The growth conditions of every target strain used in this assay are outlined in Table 1. The interpretation of inhibition was performed by measuring the true halo of the inhibitory zone (total halo – spot size = true halo) and was classified into one of four groups: (i) no inhibition (0 mm); (ii) weak inhibition (0.5–5 mm); (iii) moderate inhibition (>5–≤10 mm); and (iv) strong inhibition (>10 mm). These assays were performed in triplicate.

[30] = system: S. aureus B2M; experiment: spot-on-lawn assay; type: cell-based, Staphylococcus aureus; conditions: producer spot on M17, chloroform-inactivated, overlay ~7.0 log CFU/mL indicator; 37 °C, Aerobic, BHI; true halo, triplicate
[31] = system: Enterococcus faecium NCD 0942; experiment: spot-on-lawn assay; type: cell-based; conditions: producer spot on M17, chloroform-inactivated, overlay ~7.0 log CFU/mL indicator; 37 °C, Aerobic, BHI; true halo, triplicate
[32] = system: proteases; set-up: method as in 4 sources, ref 33 = [33]; PMID 21948835; doi:10.1128/AEM.06348-11; 33 Masuda Y Ono H Kitagawa H Ito H Mu F Sawa N Zendo T Sonomoto K Identification and characterization of leucocyclicin Q, a novel cyclic bacteriocin produced by Leuconostoc mesenteroides TK41401 Appl ||| ref 27 = [27]; PMID 21057028; doi:10.1128/AEM.01173-10; 27 Borrero J Brede DA Skaugen M Diep DB Herranz C Nes IF Cintas LM Hernández PE Characterization of garvicin ML, a novel circular bacteriocin produced by Lactococcus garvieae DCC43, isolated from mall ||| ref 30 = [30]; PMID 29177092; doi:10.1099/mgen.0.000134; 30 van Heel AJ Montalban-Lopez M Oliveau Q Kuipers OP Genome-guided identification of novel head-to-tail cyclized antimicrobial peptides, exemplified by the discovery of pumilarin Microb Genom 2017 3 ||| ref 29 = [29]; PMID 18552180; doi:10.1128/AEM.00817-08; 29 Martin-Visscher LA van Belkum MJ Garneau-Tsodikova S Whittal RM Zheng J McMullen LM Vederas JC Isolation and characterization of carnocyclin A, a novel circular bacteriocin produced by Carnobacteri; conditions: cited from earlier work

## raffinocyclicin
[1]
  Activity (inhibition zone): ++ (>5–≤10 mm inhibition zone)
[2]
  Activity (inhibition zone): ++ (>5–≤10 mm inhibition zone)
[3]
  Activity (inhibition zone): ++ (>5–≤10 mm inhibition zone)
[4]
  Activity (inhibition zone): ++ (>5–≤10 mm inhibition zone)
[5]
  Activity (inhibition zone): –
[6]
  Activity (inhibition zone): + (0.5–5 mm inhibition zone)
[7]; indicator L. lactis HP
  antimicrobial activity after NaOH treatment, in words: resistant; also recorded: remained unchanged
[7]; 40 µL spotted around chloroform-inactivated producer spot, overlay L. lactis HP, 30 °C, 24 h
  Phenotype: R
[7]; 40 µL spotted around chloroform-inactivated producer spot, overlay L. lactis HP, 30 °C, 24 h, true halo treated/control (10 mM PBS pH 7.4) × 100
  Residual activity: 100%
[8]
  Activity (inhibition zone): –
[9]
  Activity (inhibition zone): +++ (>10 mm inhibition zone)
[10]
  Activity (inhibition zone): ++ (>5–≤10 mm inhibition zone)
[11]
  Activity (inhibition zone): ++ (>5–≤10 mm inhibition zone)
[12]
  Activity (inhibition zone): + (0.5–5 mm inhibition zone)
[13]
  Activity (inhibition zone): –
[14]
  Activity (inhibition zone): + (0.5–5 mm inhibition zone)
[15]
  Activity (inhibition zone): ++ (>5–≤10 mm inhibition zone)
[16]
  Activity (inhibition zone): +++ (>10 mm inhibition zone)
[17]
  Activity (inhibition zone): +++ (>10 mm inhibition zone)
[18]
  Activity (inhibition zone): –
[19]
  Activity (inhibition zone): + (0.5–5 mm inhibition zone)
[20]
  Activity (inhibition zone): ++ (>5–≤10 mm inhibition zone)
[21]
  Activity (inhibition zone): + (0.5–5 mm inhibition zone)
[22]
  Activity (inhibition zone): –
[23]
  Activity (inhibition zone): ++ (>5–≤10 mm inhibition zone)
[24]
  Activity (inhibition zone): –
[25]
  Activity (inhibition zone): + (0.5–5 mm inhibition zone)
[26]
  Activity (inhibition zone): –
[27]
  Activity (inhibition zone): + (0.5–5 mm inhibition zone)
[28]
  Activity (inhibition zone): ++ (>5–≤10 mm inhibition zone)
[29]; producer spot on M17, chloroform-inactivated, overlay ~7.0 log CFU/mL indicator, 37 °C, Aerobic, BHI, true halo, triplicate
  Activity (inhibition zone): –
[29]; spot-on-lawn assay, producer L. raffinolactis APC 3967
  inhibition in the spot-on-lawn assay, in words: No inhibition
[30]
  Activity (inhibition zone): + (0.5–5 mm inhibition zone)
[31]
  Activity (inhibition zone): ++ (>5–≤10 mm inhibition zone)

## leucocyclicin Q
[32]
  sensitivity to proteolytic activity: resistant

## garvicin ML
[32]
  sensitivity to proteolytic activity: resistant
